Measurements as given in patent publication US9139581B2 (PORTOLA PHARMACEUTICALS, INC., priority 2008, dated 2015).
Like-named read-outs stand apart in the source and are kept apart here.

Target: T1, full length active recombinant SYK enzyme (Homo sapiens, UniProt P43405)
T1 construct: full length active recombinant SYK enzyme (Millipore, Calif.); purchased Millipore
Assay: Inhibition of Syk tyrosine phosphorylation activity (LANCE TR-FRET)
Type: biochemical
Conditions: 1 nM SYK, 100 μM ATP
Experimental: The in vitro and in vivo human syk activities of the inventive compounds can be determined by various procedures known in the art, such as a test for their ability to inhibit the activity of human plasma syk. […] Inhibition of Syk Tyrosine Phosphorylation Activity Potency of candidate molecules for inhibiting syk tyrosine phosphorylation activity is assessed by measuring the ability of a test compound to inhibit syk-mediated tyrosine phosphorylation of a syk-specific substrate. SYK tyrosine phosphorylation activity is measured using the LANCETM Technology developed by Perkin Elmer Life and Analytical Sciences (Boston, Mass.). LANCETM refers to homogeneous time resolved fluorometry applications using techniques such as time-resolved fluorescence resonance energy transfer assay (TR-FRET) (see generally for procedures in Perkin Elmer Application Note-How to Optimize a Tyrosine Kinase Assay Using Time Resolved Fluorescence-Based LANCE Detection, wwww.perkinelmer.com/lifesciences). The assay principle involves detection of a phosphorylated substrate using energy transfer from a phosphospecific europium-labeled antibody to streptavidin-allophycocyanin as an acceptor. To test the ability of candidate molecules to inhibit SYK tyrosine phosphorylation activity, molecules are reconstituted in 30% DMSO and serially diluted 1:3 with the final dilution containing DMSO in the absence of the candidate molecule. The final DMSO concentration in the assay is 3%. Kinase assays are performed as a two part reaction. The first reaction is a kinase reaction and which comprises of a candidate molecule, full length active recombinant SYK enzyme (Millipore, Calif.) and biotin-labeled SYK-specific substrate biotin-[…]-OH. The second reaction involves termination of the kinase reaction and the simultaneous addition of the detection reagents-europium-labeled anti-phosphotyrosine reagent (Eu-W1024-PY100, Perkin Elmer, Boston, Mass.) and Streptavidin-Allophycocyanin detection reagent (SA-APC, Prozyme, Calif.). The kinase reaction is performed in a black U-bottom 96-well microtitre plate. […] The reaction is allowed to proceed for 1 hour at room temperature. […] The detection reagents are added to the reaction mixture at the following dilutions-1:500 for Eu-W1024-PY100 and 1:250 for SA-APC. The kinase reaction is terminated by the addition of 50 μL quench buffer containing the detection reagents. The detection is allowed to proceed for 1 hr at room temperature. Detection of the phosphorlated substrate in the absence and presence of inhibitors is measured in the TR-FRET instrument, Analyst HT ([…], Sunnyvale, Calif.) and the condition for measurements are set up using CriterionHost Release 2.0 ([…], Sunnyvale, Calif.). […] IC50s were derived by non-linear regression analysis.

[1] = Table 3, read-out: Syk IC50 code

Row | IC50 [1] [µM] | IC50 (Table 4, read-out: syk IC50) [µM] | Compound
1 | > 1 | – | NCC1CCN(c2nc(Nc3ccc4c(c3)CCC(=O)N4)ncc2-c2ccncc2)CC1 [Example 138, 6-(4-(4-(aminomethyl)piperidin-1-yl)-5-(pyridin-4-yl)pyrimidin-2-ylamino)-3,4-dihydroquinolin-2(1H)-one]
2 | 0.01 to 0.1 | – | CC(=O)N1CCN(c2ccc(Nc3nc(NC4CC4)c4c(C#N)c[nH]c4n3)cc2)CC1 [Example 107, 2-(4-(4-acetylpiperazin-1-yl)phenylamino)-4-(cyclopropylamino)-7H-pyrrolo[2,3-d]pyrimidine-5-carbonitrile]
3 | > 1 | – | N#CCC(=O)N1CCCC(Nc2nc(Nc3ccc(C(N)=O)cc3)nc3[nH]ccc23)C1 (stereo not shown) [Example 110, 4-(4-(1-(2-cyanoacetyl)piperidin-3-ylamino)-7H-pyrrolo[2,3-d]pyrimidin-2-ylamino)benzamide]
4 | > 1 | – | CC(=O)N1CCN(c2ccc(Nc3ncc(F)c(N4CCN(C(N)=O)CC4)n3)cc2)CC1 [Example 125, 4-(2-(4-(4-acetylpiperazin-1-yl)phenylamino)-5-fluoropyrimidin-4-yl)piperazine-1-carboxamide]
5 | > 1 | – | N#CCC(=O)N1CCC(Nc2nc(Nc3ccc(C(N)=O)cc3)nc3[nH]ccc23)CC1 [Example 109, 4-(4-(1-(2-cyanoacetyl)piperidin-4-ylamino)-7H-pyrrolo[2,3-d]pyrimidin-2-ylamino)benzamide]
6 | 0.1 to 1 | – | CN1C(=O)CCc2cc(Nc3nc(NCc4ccccc4)c4c(-c5ccncc5)c[nH]c4n3)ccc21 [Example 114, 6-(4-(benzylamino)-5-(pyridin-4-yl)-7H-pyrrolo[2,3-d]pyrimidin-2-ylamino)-1-methyl-3,4-dihydroquinolin-2(1H)-one]
7 | > 1 | – | O=S1(=O)CCC(Nc2nc(Nc3ccc(N4CCNCC4)cc3)nc3[nH]ccc23)C1 (stereo not shown) [Example 100B, N2-(4-(piperazin-1-yl)phenyl)-N4-(1,1-dioxy-tetrahydrothiophen-3-yl)-7H-pyrrolo[2,3-d]pyrimidine-2,4-diamine]
8 | 0.1 to 1 | – | C[C@@H](CO)Nc1nc(Nc2ccc(N3CCNCC3)cc2)nc2[nH]ccc12 [Example 99B, (S)-2-(2-(4-(piperazin-1-yl)phenylamino)-7H-pyrrolo[2,3-d]pyrimidin-4-ylamino)propan-1-ol]

Second part, the compound before the results:

Row | Compound | IC50 [1] [µM] | IC50 (Table 4, read-out: syk IC50) [µM]
9 | CN(C(=O)CO)c1ccc(Nc2nc(NC3CCC3)c3cc[nH]c3n2)cc1 [Example 74, N-(4-(4-(cyclobutylamino)-7H-pyrrolo[2,3-d]pyrimidin-2-ylamino)phenyl)-2-hydroxy-N-methylacetamide] | 0.01 to 0.1 | –
10 | CC(=O)N(C)c1ccc(Nc2nc(Nc3cccc(S(N)(=O)=O)c3)c3cc[nH]c3n2)cc1 [Example 68, N-(4-(4-(3-aminosulfonyl-phenylamino)-7H-pyrrolo[2,3-d]pyrimidin-2-ylamino)phenyl)-N-methylacetamide] | 0.1 to 1 | –
11 | CC(=O)N1CCN(c2ccc(Nc3ncc(C(N)=O)c(N4CCCN(CCO)CC4)n3)cc2)CC1 [2-(4-(4-acetylpiperazin-1-yl)phenylamino)-4-(4-(2-hydroxyethyl)-1,4-diazepan-1-yl)pyrimidine-5-carboxamide] | – | 0.1 to 1
12 | Nc1nc(Nc2ccc3cn[nH]c3c2)nc2[nH]ccc12 [Example 79, N^2-(1H-indazol-6-yl)-7H-pyrrolo[2,3-d]pyrimidin-2,4-diamine] | 0.1 to 1 | –
13 | CC(=O)N1CCN(c2ccc(Nc3nc(N4CCC(C(N)=O)CC4)c4cc[nH]c4n3)cc2)CC1 [Example 24, 1-(2-(4-(4-acetylpiperazin-1-yl)phenylamino)-7H-pyrrolo[2,3-d]pyrimidin-4-yl)piperidine-4-carboxamide] | – | 0.1 to 1
14 | CC(=O)N1CCN(c2ccc(Nc3nc(Nc4cccc(C(N)=O)c4)c4cc[nH]c4n3)cc2)CC1 [Example 95A, 3-(2-(4-(4-acetylpiperazin-1-yl)phenylamino)-7H-pyrrolo[2,3-d]pyrimidin-4-ylamino)benzamide] | 0.1 to 1 | –
15 | NC[C@@H]1CCCN1c1nc(Nc2ccc3cn[nH]c3c2)nc2[nH]ccc12 [(S)-4-(2-(aminomethyl)pyrrolidin-1-yl)-N-(1H-indazol-6-yl)-7H-pyrrolo[2,3-d]pyrimidin-2-amine] | – | > 1
16 | O=C(O)CN1C(=O)CCc2cc(Nc3nc(NC4CCC4)c4cc[nH]c4n3)ccc21 [Example 70, 2-(6-(4-(cyclobutyamino)-7H-pyrrolo[2,3-d]pyrimidine-2-ylamino)-2-oxo-3,4-dihydroquinolin-1(2H)-yl)acetic acid] | 0.01 to 0.1 | –
17 | NCCOCCNc1nc(Nc2ccc3cn[nH]c3c2)nc2[nH]ccc12 [Example 92, N^4-(2-2-(aminoethoxy)ethyl)-N^2-(1H-indazol-6-ylamino)-7H-pyrrolo[2,3-d]pyrimidine-2,4-diamine] | 0.01 to 0.1 | –
18 | CC(=O)N1CCN(c2ccc(Nc3nc(N[C@H](C)CO)c4cc[nH]c4n3)cc2)CC1 [Example 98A, (R)-1-(4-(4-(4-(1-hydroxypropan-2-ylamino)-7H-pyrrolo[2,3-d]pyrimidin-2-ylamino)phenyl)piperazin-1-yl)ethanone] | 0.1 to 1 | –
19 | O=C1CCc2cc(Nc3ncc(F)c(N4CCC(CO)CC4)n3)ccc2N1 [Example 39, 6-(5-fluoro-4-(4-(hydroxymethyl)piperidin-1-yl)pyrimidin-2-ylamino)-3,4-dihydroquinolin-2(1H)-one] | 0.1 to 1 | –
20 | CCOC(=O)CN1C(=O)CCc2cc(Nc3nc(NC4CCC4)c4cc[nH]c4n3)ccc21 [Example 69, Ethyl 2-(6-(4-(cyclobutyamino)-7H-pyrrolo-[2,3-d]pyrimidine-2-ylamino)-2-oxo-3,4-dihydroquinolin-1(2H)-yl)acetate] | 0.01 to 0.1 | –
21 | NC(=O)CNS(=O)(=O)c1ccc(Nc2nc(NC3CCC3)c3cc[nH]c3n2)cc1 [Example 54, 2-(4-(4-(cyclobutylamino)-7H-pyrrolo[2,3-d]pyrimidin-2-ylamino)phenylsulfonamido)acetamide] | 0.01 to 0.1 | –
22 | NCCOCCNc1nc(Nc2ccc(N3CCC[C@H]3C(N)=O)cc2)nc2[nH]ccc12 [Example 94, (S)-1-(4-(4-(2-(2-aminoethoxy)ethylamino)-7H-pyrrolo[2,3-d]pyrimidin-2-ylamino)phenyl)pyrrolidine-2-carboxamide] | 0.1 to 1 | –
23 | CC(=O)N(C)c1ccc(Nc2ncc(F)c(N3CCC(CNC(=O)OC(C)(C)C)CC3)n2)cc1 [Example 28, tert-butyl (1-(5-fluoro-2-(4-(N-methylacetamido)phenylamino)pyrimidin-4-yl)piperidin-4-yl)methylcarbamate] | > 1 | > 1
24 | Clc1c[nH]c2nc(Nc3ccc4cn[nH]c4c3)nc(NC3CCC3)c12 [Example 50, 5-chloro-N4-cyclobutyl-N2-(1H-indazol-6-yl)-7H-pyrrolo[2,3-d]pyrimidine-2,4-diamine] | 0.001 to 0.01 | –
25 | O=C1CNc2nc(Nc3ccc4cn[nH]c4c3)nc(NC3CCC3)c21 [Example 51, 2-(1H-indazol-6-ylamino)-4-(cyclobutylamino)-6,7-dihydropyrrolo[2,3-d]pyrimidin-5-one] | 0.1 to 1 | –
26 | OCCNc1nc(Nc2ccc3cn[nH]c3c2)nc2[nH]ccc12 [Example 91, N^2-(1H-indazol-6-ylamino)-N^4-(2-hydroxyethyl)-7H-pyrrolo[2,3-d]pyrimidine-2,4-diamine] | 0.01 to 0.1 | –
27 | CC(=O)N1CCN(c2ccc(Nc3ncc(C(N)=O)c(N4CCC(CN)CC4)n3)cc2)CC1 [Example 25, 2-(4-(4-acetylpiperazin-1-yl)phenylamino)-4-(4-(aminomethyl)piperidin-1-yl)pyrimidine-5-carboxamide] | – | > 1
